Experimental data published in the NIST ThermoML archive (doi:10.1016/j.jct.2013.01.009).
“And” between values parts separate entries of the source, which are not always exact repeats. Identical values can stand only once.

Tests used:
[1] = for vapor or sublimation pressure: Closed cell (Static) method
[2] = molar heat capacity at constant pressure; details: 101.33 kPa
[3] = Molar enthalpy of transition or fusion; details: Crystal; DSC
[4] = molar enthalpy of vaporization or sublimation; details: 298.15 K, Static calorimetry

C=C1CC[C@H]2C[C@@H]1C2(C)C [(1S,5S)-6,6-dimethyl-2-methylenebicyclo[3.1.1]heptane]
[1], Liquid
Details | vapor or sublimation pressure
248.13 K | 0.00844 kPa and 0.00845 kPa
253.14 K | 0.01345 kPa and 0.01346 kPa
258.15 K | 0.021 kPa and 0.02101 kPa
263.15 K | 0.03214 kPa and 0.03213 kPa
268.15 K | 0.04828 kPa and 0.04829 kPa
273.65 K | 0.07411 kPa and 0.07418 kPa
278.15 K | 0.1037 kPa and 0.1038 kPa
283.15 K | 0.1485 kPa
288.15 K | 0.2093 kPa and 0.2094 kPa and 0.2095 kPa
293.15 K | 0.291 kPa and 0.2911 kPa
298.15 K | 0.4 kPa
303.15 K | 0.5419 kPa and 0.542 kPa
308.15 K | 0.7254 kPa and 0.7255 kPa and 0.7256 kPa

[2], Liquid, Large sample (1 g) DSC
Details | molar heat capacity at constant pressure [J/K/mol]
273.4 K | 230.06
278.5 K | 232.64
283.6 K | 235.22
288.7 K | 237.96
293.8 K | 240.62
298.9 K | 243.36
304 K | 245.94
309.1 K | 248.19
314.2 K | 251.01
319.4 K | 254.17
324.5 K | 256.75
329.6 K | 260.08
334.7 K | 262.9
339.8 K | 266.4
344.9 K | 269.47
350 K | 272.05
355.1 K | 275.21

CC1=C[C@H](O)[C@H]2C[C@@H]1C2(C)C [(-)-cis-verbenol]
Details | Molar enthalpy of transition or fusion [kcal/mol]
[3] | 4.18

[1]
Details | Normal melting temperature, Crystal [°C] | vapor or sublimation pressure, 273.15 K | vapor or sublimation pressure, 278.15 K | vapor or sublimation pressure, 283.15 K [kPa] | vapor or sublimation pressure, 288.15 K | vapor or sublimation pressure, 293.15 K | vapor or sublimation pressure, 298.15 K | vapor or sublimation pressure, 303.15 K [kPa] | vapor or sublimation pressure, 308.15 K | vapor or sublimation pressure, 313.15 K
Crystal | – | 0.00025 kPa and 0.00026 kPa | 0.00049 kPa and 0.0005 kPa | 0.00092 | 0.00169 kPa and 0.00168 kPa | 0.003 kPa and 0.00301 kPa | 0.00523 kPa and 0.00528 kPa and 0.00529 kPa | 0.00906 | 0.01518 kPa and 0.01523 kPa and 0.01524 kPa | 0.02515 kPa and 0.02516 kPa and 0.02517 kPa
DTA | 70.5 | – | – | – | – | – | – | – | – | –

Details | molar enthalpy [kcal/mol]
[4], Crystal | 19.1

[2]
Details | molar heat capacity at constant pressure [J/K/mol]
273.4 K, Crystal, Large sample (1 g) DSC | 217.51
278.5 K, Crystal, Large sample (1 g) DSC | 222.58
283.6 K, Crystal, Large sample (1 g) DSC | 228.98
288.7 K, Crystal, Large sample (1 g) DSC | 235.38
293.8 K, Crystal, Large sample (1 g) DSC | 242.28
298.15 K, Crystal, Drop calorimetry | 233.55
298.9 K, Crystal, Large sample (1 g) DSC | 250.18
304 K, Crystal, Large sample (1 g) DSC | 259
309.1 K, Crystal, Large sample (1 g) DSC | 269.14
344.9 K, Liquid, Large sample (1 g) DSC | 372.99
350 K, Liquid, Large sample (1 g) DSC | 377.14
355.1 K, Liquid, Large sample (1 g) DSC | 381.47

CC1=CC(=O)[C@H]2C[C@@H]1C2(C)C [(-)-verbenone]
[1], Liquid
Details | vapor or sublimation pressure
273.65 K | 0.00181 kPa and 0.00183 kPa
273.66 K | 0.00181 kPa
278.15 K | 0.00278 kPa
278.16 K | 0.00276 kPa and 0.00277 kPa
283.15 K | 0.00436 kPa and 0.00437 kPa
288.15 K | 0.00676 kPa and 0.00678 kPa and 0.00675 kPa
293.15 K | 0.01031 kPa
293.16 K | 0.01032 kPa and 0.01035 kPa
298.15 K | 0.01545 kPa and 0.01546 kPa and 0.01547 kPa
303.15 K | 0.02273 kPa and 0.02278 kPa and 0.02281 kPa
308.16 K | 0.03304 kPa and 0.03307 kPa and 0.03309 kPa

Details | molar enthalpy [kcal/mol]
[4], Liquid | 14.1

[2], Liquid
Details | molar heat capacity at constant pressure [J/K/mol]
273.4 K, Large sample (1 g) DSC | 258.83
278.5 K, Large sample (1 g) DSC | 260.99
283.6 K, Large sample (1 g) DSC | 262.32
288.7 K, Large sample (1 g) DSC | 264.07
293.8 K, Large sample (1 g) DSC | 266.73
298.15 K, Drop calorimetry | 270.55
298.9 K, Large sample (1 g) DSC | 269.39
304 K, Large sample (1 g) DSC | 270.47
309.1 K, Large sample (1 g) DSC | 273.05
314.2 K, Large sample (1 g) DSC | 275.62
319.4 K, Large sample (1 g) DSC | 276.87
324.5 K, Large sample (1 g) DSC | 279.45
329.6 K, Large sample (1 g) DSC | 281.69
334.7 K, Large sample (1 g) DSC | 284.69
339.8 K, Large sample (1 g) DSC | 286.93
344.9 K, Large sample (1 g) DSC | 289.68
350 K, Large sample (1 g) DSC | 292
355.1 K, Large sample (1 g) DSC | 294.42

CC1=CC[C@H]2C[C@@H]1C2(C)C [(S)-2-pinene]
[1], Liquid
Details | vapor or sublimation pressure
238.19 K | 0.0053 kPa
243.2 K | 0.00874 kPa and 0.00875 kPa
253.19 K | 0.02209 kPa and 0.0221 kPa
258.2 K | 0.03413 kPa and 0.03415 kPa and 0.03412 kPa
263.19 K | 0.05172 kPa
268.19 K | 0.07688 kPa and 0.07689 kPa and 0.07691 kPa
273.65 K | 0.1164 kPa
273.66 K | 0.1164 kPa
278.16 K | 0.1615 kPa and 0.1614 kPa
283.15 K | 0.2288 kPa
288.15 K | 0.3195 kPa and 0.3196 kPa
293.15 K | 0.4403 kPa and 0.4404 kPa
298.15 K | 0.599 kPa and 0.5991 kPa
303.15 K | 0.8053 kPa
303.16 K | 0.8056 kPa and 0.8057 kPa
308.17 K | 1.071 kPa
308.18 K | 1.071 kPa

[2], Liquid, Large sample (1 g) DSC
Details | molar heat capacity at constant pressure [J/K/mol]
273.4 K | 239.62
278.5 K | 242.37
283.6 K | 244.61
288.7 K | 247.11
293.8 K | 249.27
298.9 K | 253.09
304 K | 255.34
309.1 K | 257.83
314.2 K | 260.41
319.4 K | 262.57
324.5 K | 266.15
329.6 K | 268.97
334.7 K | 272.3
339.8 K | 274.88
344.9 K | 278.7
350 K | 282.11
355.1 K | 284.44
